≈ marks a conversion by molar mass, not a printed value.
Columns and labels:
Type in all cases: functional
[1] = tested on: Mycobacterium tuberculosis; assay: Antibacterial activity against Mycobacterium tuberculosis H37Rv.
Mycobacterium kansasii = assay: Antibacterial activity against Mycobacterium kansasii
[2] = tested on: Mycobacterium intracellulare; assay: Antibacterial activity against Mycobacterium intracellular.

Row | Compound | MIC [1] [µg/mL] | MIC (Mycobacterium kansasii) [µg/mL] | MIC [2] [µg/mL]
1 | CO[C@H]1/C=C/O[C@@]2(C)Oc3c(C)c(O)c4c(O)c(c(/C=N/N5CCN(C)CC5)c(O)c4c3C2=O)NC(=O)/C(C)=C\C=C\[C@H](C)[C@H](O)[C@@H](C)[C@@H](O)[C@@H](C)[C@H](OC(C)=O)[C@@H]1C [RIFAMPIN] | 0.05 (≈ 0.0608 µM) | 0.05 (≈ 0.0608 µM) | 0.2 (≈ 0.243 µM)
2 | O=C(Nc1ccc(Br)c2ccccc12)c1ccccc1SSc1ccccc1C(=O)Nc1ccc(Br)c2ccccc12 | 12.5 (≈ 17.5 µM) | 50 (≈ 70 µM) | > 100
3 | O=C(c1ccccc1SSc1ccccc1C(=O)n1nnc2ccccc21)n1nnc2ccccc21 | > 100 | > 100 | > 100
4 | CC(=O)OCCCNC(=O)c1ccccc1SSc1ccccc1C(=O)NCCCOC(C)=O | 12.5 (≈ 24.8 µM) | 25 (≈ 49.5 µM) | 25 (≈ 49.5 µM)
5 | CCOC(=O)CNC(=O)c1ccccc1SSc1ccccc1C(=O)NCC(=O)OCC | 25 (≈ 52.5 µM) | 25 (≈ 52.5 µM) | 25 (≈ 52.5 µM)
6 | CCCCCCCCCCCC(=O)OC(C)CNC(=O)c1ccccc1SSc1ccccc1C(=O)NCC(C)OC(=O)CCCCCCCCCCC (stereo not drawn) | 3.13 (≈ 3.99 µM) | 50 (≈ 63.7 µM) | 100 (≈ 127 µM)
7 | O=C(c1ccccc1SSc1ccccc1C(=O)N1CCOCC1)N1CCOCC1 | 12.5 (≈ 28.1 µM) | > 100 | > 100
8 | CN1CCCN(C(=O)c2ccccc2SSc2ccccc2C(=O)N2CCCN(C)CC2)CC1 | > 100 | > 100 | > 100
9 | O=C1c2ccccc2S(=O)(=O)N1CO | > 100 | > 100 | 100 (≈ 469 µM)
10 | CCCCCCCCCCCCNC(=O)c1ccccc1SSc1ccccc1C(=O)NCCCCCCCCCCCC | 3.13 (≈ 4.88 µM) | 25 (≈ 39 µM) | 50 (≈ 78 µM)
11 | Cl.Cl.O=C(c1ccccc1SSc1ccccc1C(=O)N1CCN(C(c2ccccc2)c2ccccc2)CC1)N1CCN(C(c2ccccc2)c2ccccc2)CC1 | > 100 | > 100 | > 100
12 | CCCCCCCCCCCCCCCC(=O)OCCNC(=O)c1ccccc1SSc1ccccc1C(=O)NCCOC(=O)CCCCCCCCCCCCCCC | 100 (≈ 115 µM) | 100 (≈ 115 µM) | 100 (≈ 115 µM)
13 | CN1CCN(C(=O)c2ccccc2SSc2ccccc2C(=O)N2CCN(C)CC2)CC1.Cl.Cl | 100 | > 100 | > 100
14 | CN[C@@H]1[C@H](O[C@H]2[C@H](O[C@H]3[C@H](O)[C@@H](O)[C@H](N=C(N)N)[C@@H](O)[C@@H]3N=C(N)N)O[C@@H](C)[C@]2(O)C=O)O[C@@H](CO)[C@H](O[C@@H]2O[C@H](CO)[C@@H](O)[C@H](O)[C@@H]2O)[C@H]1O | 0.78 (≈ 1.05 µM) | 3.13 (≈ 4.21 µM) | 12.5 (≈ 16.8 µM)
15 | CCC(CO)(CO)NC(=O)c1ccccc1SSc1ccccc1C(=O)NC(CC)(CO)CO | 25 (≈ 49.1 µM) | 25 (≈ 49.1 µM) | 100 (≈ 197 µM)
16 | CCc1cc(CC)cc(NC(=O)c2ccccc2SSc2ccccc2C(=O)Nc2cc(CC)cc(CC)c2)c1 | > 100 | > 100 | > 100

Row | Compound | MIC [1] [µg/mL] | MIC (Mycobacterium kansasii) [µg/mL] | MIC [2] [µg/mL]
17 | CCCCC(CC)CNC(=O)c1ccccc1SSc1ccccc1C(=O)NCC(CC)CCCC (stereo not drawn) | 1.56 (≈ 2.95 µM) | 3.13 (≈ 5.92 µM) | 50 (≈ 94.5 µM)
18 | CCCCCCCCCCCCCCCC(=O)OC(C)CNC(=O)c1ccccc1SSc1ccccc1C(=O)NCC(C)OC(=O)CCCCCCCCCCCCCCC (stereo not drawn) | 25 (≈ 27.9 µM) | > 100 | > 100
19 | CCCCCCCCCC(=O)OCCCNC(=O)c1ccccc1SSc1ccccc1C(=O)NCCCOC(=O)CCCCCCCCC | 0.39 (≈ 0.535 µM) | 0.39 (≈ 0.535 µM) | 12.5 (≈ 17.1 µM)
20 | CCCCCC(=O)OCCCNC(=O)c1ccccc1SSc1ccccc1C(=O)NCCCOC(=O)CCCCC | 3.13 (≈ 5.07 µM) | 0.39 (≈ 0.632 µM) | 12.5 (≈ 20.3 µM)
21 | O=C(NC1CCCCC1)c1ccccc1SSc1ccccc1C(=O)NC1CCCCC1 | 12.5 (≈ 26.7 µM) | 100 (≈ 213 µM) | > 100
22 | O=C(NCC(O)c1ccc(O)c(O)c1)c1ccccc1SSc1ccccc1C(=O)NCC(O)c1ccc(O)c(O)c1 (stereo not drawn) | 100 (≈ 164 µM) | > 100 | > 100
23 | CCOC(CN1CCN(C(=O)c2ccccc2SSc2ccccc2C(=O)N2CCN(CC(OCC)c3ccccc3)CC2)CC1)c1ccccc1 (stereo not drawn) | > 100 | > 100 | > 100
24 | CCn1c2ccccc2c2cc(NC(=O)c3ccccc3SSc3ccccc3C(=O)Nc3ccc4c(c3)c3ccccc3n4CC)ccc21 | 3.13 (≈ 4.53 µM) | 50 (≈ 72.4 µM) | > 100
25 | NC[C@H]1O[C@H](O[C@H]2[C@H](O)[C@@H](O[C@H]3O[C@H](CO)[C@@H](O)[C@H](N)[C@H]3O)[C@H](N)C[C@@H]2N)[C@H](O)[C@@H](O)[C@@H]1O [KANAMYCIN] | 3.13 (≈ 6.46 µM) | 25 (≈ 51.6 µM) | 6.25 (≈ 12.9 µM)
26 | O=C(Nc1cccc([N+](=O)[O-])c1)c1ccccc1SSc1ccccc1C(=O)Nc1cccc([N+](=O)[O-])c1 | 100 (≈ 183 µM) | > 100 | > 100
27 | O=C(NCCNCCO)c1ccccc1SSc1ccccc1C(=O)NCCNCCO | 25 (≈ 52.2 µM) | > 100 | > 100
28 | O=C(NCC(O)c1ccccc1)c1ccccc1SSc1ccccc1C(=O)NCC(O)c1ccccc1 (stereo not drawn) | 100 (≈ 184 µM) | 100 (≈ 184 µM) | > 100
29 | COC(CNC(=O)c1ccccc1SSc1ccccc1C(=O)NCC(OC)OC)OC | 3.13 (≈ 6.51 µM) | 12.5 (≈ 26 µM) | 12.5 (≈ 26 µM)
30 | O=c1c2ccccc2sn1CCO | 12.5 (≈ 64 µM) | 25 (≈ 128 µM) | 12.5 (≈ 64 µM)
31 | O=C(Nc1c([N+](=O)[O-])ccc2ccccc12)c1ccccc1SSc1ccccc1C(=O)Nc1c([N+](=O)[O-])ccc2ccccc12 | 50 (≈ 77.3 µM) | 50 (≈ 77.3 µM) | > 100
